Molecular target: T1, thiaminase II (TenA) (Bacillus subtilis, UniProt P25052)
T1 sequence (P25052 1-236): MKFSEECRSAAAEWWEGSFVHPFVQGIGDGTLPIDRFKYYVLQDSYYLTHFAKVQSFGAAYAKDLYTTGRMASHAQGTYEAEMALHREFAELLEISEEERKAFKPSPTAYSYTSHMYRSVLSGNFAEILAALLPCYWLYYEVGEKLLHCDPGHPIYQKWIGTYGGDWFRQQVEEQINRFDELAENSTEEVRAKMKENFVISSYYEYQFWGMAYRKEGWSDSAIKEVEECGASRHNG
Experiment: nhPHIP hyperpolarized NMR of iridium hydride signals in reverse micelles; agrees with a titration of TenA with ABAP (KD […])
Format: binding

Kd: 39.7 ± 8.9 µM
Structure (SMILES): Nc1ccnc(NCc2ccccc2)n1 [L, 4-amino-2-benzylaminopyrimidine]

Reference: publication PMC11664502, “Parahydrogen Polarization in Reverse Micelles and Application to Sensing of Protein–Ligand Binding” (Journal of the American Chemical Society, 2024)
